For one data set, the system named is CEM cells. Briefly: FACS binding of labeled TASP constructs to the cell-surface ligand. The arrangement: species or system human. Conditions: biotin-labeled constructs, dose for 50% labeling, read-out: Affinity to bind TASP-ligand (EC50), 50% effective dose. An excerpt: The cells were then washed twice with FACS buffer and fixed in 1% formaldehyde in FACS buffer. […] The fluorescence intensity was monitored by FACS analysis using Lysis II Software in FIGS. 3/4 and Tables 1/2, or Cell Quest™ Software (Beckton Dickinson and Apple Computer) in FIG. 5 +L.

The nature of data set [1]: Stability of TASP constructs in serum (residual activity to bind the cell-surface ligand). Type of data set: in vitro ADME.
Data set [2] deals with V3 loop-BPs (nucleolin, PHAP II, PHAP I). Briefly: BIAcore biosensor binding to immobilized V3 loop-BPs. Details: species or system human.
Data set [3] deals with HIV-1 Lai. Briefly: HIV entry into HeLa P4 / P4-C5 cells (β-galactosidase activity), HIV-1 Lai. Type of data set: cell-based.
The test system of data set [4] is HIV-1 Bal. Briefly: HIV entry into HeLa P4-C5 cells (β-galactosidase), HIV-1 Ba-L. Conditions: HeLa P4-C5, HIV-1 Bal; read-out: IC50, inhibition of HIV entry. Format: cell-based.
The next data set deals with VSV/HIV. Format: cell-based.
The test system of data set [5] is HIV-1 ELI, Ba-L, SF162, UGO29A, and Retrovir resistant isolate. In words: Infection of PBMC by different HIV-1 isolates (p24 in culture medium). Conditions: p24 at 6 days post-infection, range over the isolates, read-out: IC50 values, virus production in PBMC. Type of data set: cell-based. The text has this:
Virus production was monitored by the concentration of p24 in the culture medium at 6 days post-infection (3 +L0). The HIV-1 isolates were:
Virus production was monitored by the concentration of p24 in the culture medium at 7 days post-infection.

For a further data set, the system named is HIV-1 Ada-M. In words: Infection of PBMC by HIV-1 Ada-M (p24). Conditions: p24 at 6 days post-infection. Format: cell-based. An excerpt:
Virus production was monitored by the concentration of p24 in the culture medium at 6 days post-infection (3 +L0).

The subject of data set [6] is HIV-1 Lai. In words: Binding of HIV particles to CEM cells (cell-associated p24). Type of data set: cell-based. The settings on record: 37° C., 1 hour; TASP 10 mM, mAb OKT4A 10 μg/ml, mAb anti-CD4 5 μg/ml, rabbit antibodies 100 μg/ml. As for the experimental part:
B. The binding of HIV particles to CEM cells. […] The binding of HIV particles was estimated as described in “Materials and Methods”. The ordinate gives the concentration of p24 associated with the cells, i.e. particles bound on the cell surface as well as particles (or cores) entered into cells. Each value represents the mean of two identical samples. Similar results were obtained in two other indepenent experiments.
CEM cells (5×10^6) were first preincubated (15 min, 37° C.) in the absence (Control) or presence of mAb anti-CD4 CB-T4 (5 μg/ml; histogram a-CD4), rabbit peptide purified antibodies against nucleolin, PHAP II and PHAP I at 100 μg/ml, or combination of antibodies as shown (at the same concentrations as when used alone) before the addition of HIV-1 Lai (material corresponding to 5 ng of p24), and further incubation at 37° C. for 1 hr. The cells were then washed and cell extracts were prepared to estimate the amount of HIV binding to cells (HIV bound on the surface+HIV entered into cells). The amount of virus particles was estimated by measuring the concentration of p24. The experimental conditions were as described previously (Krust et al., 1993; Callebaut et al., 1997b).
After incubation at 37° C. for 1 hour with gentle shaking, cells were diluted 10 fold in the culture medium and pelleted by centrifugation. […]

The test system of data set [7] is HIV-1 Bal. In words: Infection of human monocyte-derived macrophages by HIV-1 (p24). Type of data set: cell-based. Conditions: HIV-1 BaL (TASP also Ada); p24 in supernatant. As for the experimental part: Macrophages are infected with BaL or Ada HIV-1 viruses, in the presence of 2 μM, 1 μM or 0.1 μM of 5[Kψ (CH2N)PR]-TASP. Cells are preincubated during 30 min at 4° C. in the presence of 5[Kψ (CH2N)PR]-TASP before adding the virus. Every 3 days interval, the whole culture supernatant is collected and is replaced by RPMI 1640 culture medium supplemented with 20% fetal calf serum (FCS), 1% antibiotics, 1% glutamine, in addition to 5[Kψ (CH2N)PR]-TASP that is kept present in the culture medium until day 14 after in vitro infection. Virus production is quantitated by titration of p24 protein in the culture supernatant at different times (days) after in vitro infection. Each value represented in the graphs represents the mean of two test samples.
Macrophages are infected by the BaL VIH-1 virus in the presence of 100 μg/ml of anti-P95, anti-P40 and anti-P30 antibody. Cells are preincubated during 30 min at 4° C. in the presence of each kind of antibody before adding the virus. The antibodies are kept present in the culture medium during the whole infection period of time. […]
Cells are preincubated during 30 min at 4° C. in the presence of the different molecules either alone or in association before adding the virus. […] Virus production is quantitated by titration of p24 protein in the culture supernatant at different times (days) after in vitro infection. […]

A further data set deals with P95/nucleolin (Homo sapiens, UniProt P19338). In words: Saturation of binding sites of P95/nucleolin.
In data set [8] the test system is cell surface component (CEM and C8166 clones). In words: Competition for cell-surface binding of 8-MAP. The settings on record: FACS competition. The arrangement: species or system human.
Data set [9] concerns HIV-1 pseudotyped Mo-MLV virus. Briefly: Infection of CEM cells by HIV-1 pseudotyped Mo-MLV virus (p24). Conditions: p24 at 48 hours p.i., AZT 5 μM, TASP 5 μM.
Description: CEM cells (2×10^5) were infected with the HIV-1 pseudoryped Mo-MLV virus (Experimental procedure) at 95 ng of p24/ml, in the absence (histogram Control) or presence of different additions (as indicated). The infection was monitored by the production of p24, which was measured in the culture supernatant at 48 hours p.i. The mean±SD of duplicate samples is given. Treatment of cells with the different antibodies was as in FIG. 6 +L. For a control of infection, cells were pretreated with 5 μM AZT before infection.
Hela cells were cotransfected by electroporation with plasmids pNL4-3 defective in env gene (Borman et al., 1995) and pE4070A expressing amphotrope envelope glycoproteins of Mo-MLV (Battini et al., 1996). Electroporation (Schwartz et al., 1996) was performed at 200 V, 960 μF, using a 4 mm wide cuvettes in a BIO-Rad Gene Pulser. The pseudotyped virus was recovered from the culture supernatant after 48 hours of culturing.
[10] abbreviates: binding protein(s) V3 loop-BPs, BIAcore.

P95/nucleolin, sequence (P19338 whole entry): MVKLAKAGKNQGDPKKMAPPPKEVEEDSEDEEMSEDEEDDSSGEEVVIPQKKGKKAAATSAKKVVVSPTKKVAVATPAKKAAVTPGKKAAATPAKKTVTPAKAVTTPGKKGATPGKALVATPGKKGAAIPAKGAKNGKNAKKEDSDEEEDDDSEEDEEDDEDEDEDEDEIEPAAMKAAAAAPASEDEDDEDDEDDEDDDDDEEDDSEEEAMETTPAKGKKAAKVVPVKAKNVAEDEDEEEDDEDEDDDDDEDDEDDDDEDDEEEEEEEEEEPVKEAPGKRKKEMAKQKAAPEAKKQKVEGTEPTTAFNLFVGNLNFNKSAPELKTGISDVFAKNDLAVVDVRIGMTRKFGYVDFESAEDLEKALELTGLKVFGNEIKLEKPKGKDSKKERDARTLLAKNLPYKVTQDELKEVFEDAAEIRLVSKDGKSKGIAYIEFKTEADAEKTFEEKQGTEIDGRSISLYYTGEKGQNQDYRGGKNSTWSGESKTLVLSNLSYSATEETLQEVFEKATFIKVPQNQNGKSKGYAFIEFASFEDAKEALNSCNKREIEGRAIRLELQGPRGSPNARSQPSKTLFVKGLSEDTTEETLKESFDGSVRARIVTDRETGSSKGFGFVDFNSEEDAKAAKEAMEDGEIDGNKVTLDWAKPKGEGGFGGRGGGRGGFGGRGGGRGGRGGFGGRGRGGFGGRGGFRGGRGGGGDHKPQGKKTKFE

As to 5[Kψ(CH2N)PR]-TASP, in the data set on CEM cells, the EC50 amounted to 150 nM. In addition, in data set [1], the “activity retained after 18 hours of incubation in serum” value was “more than 80%” and the “inactivated after 18 hours of incubation in sera” value was “less than 20%”. In addition, in data set [2] (setting [10]), the “Ka (equilibrium affinity constant)” value turned out to be 9.61e+09 M⁻¹, the “ka (association rate constant)” value is 37.50 × 10^5 M^−1S^−1 and the “kd (dissociation rate constant)” value is given as 0.39 × 10^−3 S^−1. Moreover, the “equilibrium affinity constant Ka” value in data set [2] (binding to the V3 loop-BPs) was determined as 9.6e+09 M⁻¹. Further, the “inhibition of viral entry monitored by β-galactosidase activity in HeLa/CD4^+ cells” value with HIV-1 Lai [3] (5-10 μM) is “at least 90%”. Further, the “inhibition of HIV-1 LAI infection in HeLa cells” value in the data set with HIV-1 Lai [3] (37° C. in culture medium, 0.1-1 μM) is given as “more than 90%”. Also, the IC50 with HIV-1 Bal [4] was determined as 300 nM. Moreover, in the data set on VSV/HIV, the “effect on VSV-HIV pseudotyped virus entry and replication” value is listed as “had no effect”. In data set [5], the IC50 lay within 50 to 500 nM. In the data set with HIV-1 Ada-M, the “effect on HIV-1 Ada-M infection of PBMC” value was “no effect”. Further, the “inhibition of binding of HIV particles to CEM cells” value with HIV-1 Lai [6] worked out at 78%. For the same substance, the “effect on infection of human macrophages by HIV-1” value with HIV-1 Bal [7] is given as “inhibits, in a dose-dependent manner”. On P95/nucleolin, the “concentration for 100% saturation of the binding sites” value is 2 µM. For the same substance, the “concentration sufficient to block the binding of 10 μM of 8-MAP” value in data set [8] was 1 µM. Further, in [9], the “effect on infection by HIV-1 pseudotyped Mo-MLV virus” value was “no significant effect”.

Source of the values: patent US20020076693A1, “Novel cell surface receptor for HIV retroviruses, therapeutic and diagnostic uses” (priority 1997, published 2002).
